Measured values published in article PMC9206510, “4′-Fluorouridine is an oral antiviral that blocks respiratory syncytial virus and SARS-CoV-2 replication” (Science (New York, N.y.), 2021).
Where two headings read alike, the source gives them in different places.

How the values were obtained:
[1] = human, 20 μM
in vitro [2] = conditions: human
[3] = test system: RSV (recRSV A2-L19F and clinical RSV isolates); experiment: microbe, parasite or virus in culture; assay type: cell-based; conditions: human respiratory syncytial virus, HEp-2, read-out: half-maximal effective concentrations (EC50 values)
measles virus (MeV) = experiment: Dose-response inhibition of recombinant mononegaviruses: MeV; assay type: cell-based
[4] = test system: human parainfluenza virus type 3 (HPIV3); experiment: Dose-response inhibition of recombinant mononegaviruses: HPIV3; assay type: cell-based
Sendai virus (SeV) = experiment: Dose-response inhibition of recombinant mononegaviruses: SeV; assay type: cell-based
[5] = test system: vesicular stomatitis virus (VSV); assay type: cell-based
rabies virus (RabV) = assay type: cell-based
SARS-CoV-2 = experiment: microbe, parasite or virus in culture; assay type: cell-based; conditions: Severe acute respiratory syndrome coronavirus 2
RSV RdRP complex = RSV RdRP complex (Human respiratory syncytial virus A, UniProt P28887); assay type: cell-based
[6] = test system: paramyxovirus RdRP complex; assay type: cell-based, MeV, HPIV-3
[7] = molecular target: RdRP activity of Nipah virus (NiV) (Nipah virus, UniProt Q997F0); assay type: cell-based
recRSV-A2-L19F = assay type: in vivo, BALB/cJ mice
SARS-CoV-2 WA1 isolate = experiment: Virus yield reduction of SARS-CoV-2 WA1 shed apically from ALI HAE organoids; assay type: cell-based
From the text: To test activity against SARS-CoV-2 in the human airway organoids, we first confirmed that the WA1 isolate replicated efficiently in HAEs of all donors tested (Fig. 5, A to C, and fig. S15).
Fig. 5. Efficacy of 4′-FlU against SARS-CoV-2 replication in HAE organoids. (A) Multicycle growth curve of SARS-CoV-2 WA1 isolate on ALI HAE from two donors. Shed virus was harvested daily and titered by plaque assay (n = 3). (B and C) Confocal microscopy of ALI HAE cells from “F1” donor mock-infected (B) or infected (C) with SARS-CoV-2 WA1 isolate, at 3 days post-infection. SARS-CoV-2 infected cells, goblet cells, and nuclei were stained with anti-SARS-CoV-2 N immunostaining, anti-MUC5AC immunostaining, and Hoechst 34580, pseudo-colored in red, green, and blue, respectively. z-stacks of 35 μm slices (1 μm thick) with 63× objective with oil immersion. […] Rare ciliated cells positive for N are represented in (F).

[8] = test system: SARS-CoV-2 WA1 or VoC alpha, gamma, or delta; experiment: Ferret model of SARS-CoV-2 infection, oral treatment; assay type: in vivo
[9] = mouse, in vivo
[10] = ferret, in vivo, po
in vitro [11] = experiment: in vitro
in vitro [12] = conditions: human; remark: listed apart in the source
[13] = Single oral dose pharmacokinetics in ferret plasma; conditions: in vivo
SDH-A = experiment: Quantitative immunocytochemistry on HAE cells, nuclear-encoded protein; conditions: read-out: IC50, steady-state level of nuclear-encoded SDH-A
COX-I = experiment: Quantitative immunocytochemistry on HAE cells, mitochondrial-encoded protein; conditions: read-out: IC50, steady-state level of mitochondrial-encoded COX-I
[14] = test system: O=c1ccn(C2OC(F)(COP(=O)(O)OP(=O)(O)OP(=O)(O)O)C(O)C2O)c(=O)[nH]1; experiment: purified protein, by the assay type; conditions: other: Fig. 2D, Michaelis-Menten model
[15] = WA1, once-daily oral 20 mg/kg from 12 hours after infection, within 12 hours of treatment onset

O=c1ccn(C2OC(F)(COP(=O)(O)OP(=O)(O)OP(=O)(O)O)C(O)C2O)c(=O)[nH]1 (stereo not drawn) [4′-FlU-TP]
intracellular concentration at peak ([1]; 4 h): 10.38 nmol/million cells
intracellular concentration at plateau ([1]; 24 h): 1.31 nmol/million cells
half-life at 20 μM (in vitro [2]): 9.7 h

O=c1ccn([C@@H]2O[C@](F)(CO)[C@@H](O)[C@H]2O)c(=O)[nH]1 [4′-FlU, 4′-fluorouridine]
EC50 [3]: 0.61 to 1.2 µM
active concentrations (measles virus (MeV)): submicromolar
active concentrations [4]: submicromolar
active concentrations (Sendai virus (SeV)): submicromolar
active concentrations [5]: submicromolar
active concentrations (rabies virus (RabV)): submicromolar
EC50 (SARS-CoV-2): 0.2 to 0.6 µM
RdRP complex activity in minireplicon (RSV RdRP complex): inhibited
RdRP complex activity in minireplicon [6]: inhibited
RdRP activity in NiV minireplicon reporter assay [7]: efficiently inhibited
bioluminescence intensity in lungs (IVIS) (recRSV-A2-L19F; mouse, in vivo): considerable reduction
lung virus burden compared with vehicle-treated animals (recRSV-A2-L19F; mouse, in vivo): statistically significant reduction
lung virus load compared with vehicle-treated animals (recRSV-A2-L19F; mouse, in vivo): statistically significant reduction
reduction in lung virus load (recRSV-A2-L19F; mouse, in vivo, po, 5 mg/kg): nearly two orders of magnitude
therapeutic window (time of treatment start after infection) (recRSV-A2-L19F; requiring reduction of lung virus load of at least one order of magnitude): 24 h
effect of twice-daily dosing regimen on efficacy (recRSV-A2-L19F; versus once-daily oral dosing): did not significantly enhance efficacy
SARS-CoV-2 nucleocapsid protein in epithelium by confocal microscopy (SARS-CoV-2 WA1 isolate; 50 μM 4′-FlU): largely devoid
maximal effect size, reduction of apical virus shedding (SARS-CoV-2 WA1 isolate; 50 μM basolateral 4′-FlU): approximately two orders of magnitude
virus burden in nasal lavages ([8]; VoC alpha, gamma, delta, 36 to 48 hours after onset of oral treatment): below the level of detection
reduction of virus burden in nasal lavages [8, 15]: approximately three orders of magnitude
virus burden in nasal lavages [8, 15]: < 50 PFU/ml
time of treatment until shedding of infectious particles ceased completely ([8]; all animals, 3 days post-infection): 2.5 days
intracellular level ([1]; 1 h): 3.42 nmol/million cells
effect on the hematopoietic system (blood analysis) [9]: no antiproliferative effect
overall exposure ([10]; 15 mg/kg): 154 ± 27.6 µM·h
overall exposure ([10]; 50 mg/kg): 413.1 ± 78.1 µM·h
CC50 (in vitro [11]): 250 µM
CC50 (in vitro [12]): 169 µM
Cmax ([13]; 15 mg/kg): 34.8 µM
Cmax ([13]; 50 mg/kg): 63.3 µM
IC50 (SDH-A): 273 µM
IC50 (COX-I): 147 µM

recombinant RSV RdRP complexes (L and P proteins) (Human respiratory syncytial virus A2)
Km [14]: 24.9 µM
